Like-named read-outs stand apart in the source and are kept apart here.
What was measured:
[1] = tested on: mouse; assay: prolongation of narcosis produced by hexobarbital in mice; format: in vivo; settings: for E - dose which prolongs narcosis produced by hexobarbital in a mouse by a factor of 4: factor of 4, Table 3; for prolongation of narcosis produced by hexobarbital (in words): comparison of epimers
From the text: (§1) In the Table 3 which follows are listed results of tests pertaining to the effectiveness of various compounds that are disclosed herein.

[2] = tested on: mouse; assay: ataxia in mice; format: in vivo; settings: for C - ataxia: dose required to produce ataxia in a mouse / minimal effective dose: Table 3; for minimal effective dose: Mus musculus, read-out: C - ataxia: dose required to produce ataxia in a mouse, mouse
From the text: (§2) In the Table 3 which follows are listed results of tests pertaining to the effectiveness of various compounds that are disclosed herein. The results are included in the several columns under letters whose significance is as follows:
C - ataxia: Dose in milligrams per kilogram of body weight required to produce ataxia in a mouse.

[3] = acute toxicity (LD50) in mice; format: in vivo, mouse; settings: mouse, in vivo, mouse
From the text: as §2
(§3) A - lethal dose (LD50) to mice in milligrams per kilogram of body weight of the mouse when administered per os.
(§4) B - lethal dose (LD50) to mice in milligrams per kilogram of body weight of the mouse when administered intraperitoneally.
(§5) A. lethal dose (LD50) to mice in milligrams per kilogram body weight of the mouse when administered per os.
(§6) B. lethal dose (LD50) to mice in milligrams per kilogram body weight of the mouse administered intraperitoneally.
(§7) The values specified in Tables 4 and 5 hereinafter refer to milligrams per kilogram of body weight of the mouse.
(§8) Tests performed in accordance with the procedure described by Campbell and Richter in Acta Pharmacol. et Toxicol., vol. […] This is indicated by the results that are reported in Table 5 in which the headings A and F have the same significance as hereinbefore while the values in the column heading L pertain to the dose in milligrams per kilogram of body weight that was required to produce a lowering of the rectal temperature, which are values indicative of the depressant effect of a compound upon the central nervous system.

[4] = tested on: mice; assay: narcosis (lateral position) in mice; format: in vivo, mouse; settings: for ED50: ip, 0.05 h, read-out: D - narcosis (lateral position): dose (ED50) which produces narcosis for 3 minutes in 50% of the mice; for narcosis (in words): comparison of epimers
From the text: as §1

[5] = tested on: white mice; assay: ptosis test (Campbell and Richter screening); format: in vivo, mouse; settings: for F ptosis test: mouse, Table 5
From the text: (§9) The sedative and hypnotic effectiveness of the compounds of the invention were also ascertained by screening tests with white mice described by Campbell and Richter in Acta Pharmacol. et Toxicol. 25 (1967) page 345. In Table 4 the results of various specific screening tests are listed. These tests were as follows:
as §7, §8

[6] = tested on: mouse; assay: lowering of the rectal temperature in mice; format: in vivo; settings: for minimal effective dose: mouse, Table 5, read-out: L dose required to produce a lowering of the rectal temperature; for dose required to produce a lowering of the rectal temperature, relative to the 4-hydroxy compound (in words): compared with Compound No. 2090
From the text: as §7, §8

[7] = tested on: mice; assay: acute toxicity (LD50) in mice; format: in vivo, mouse; settings: mouse; for B - lethal dose (LD50) to mice, intraperitoneally: intraperitoneal; for B - lethal dose (LD50) to mice, intraperitoneally / A - lethal dose (LD50) to mice, per os: Table 3
From the text: as §2, §3, §4, §5, §6, §7, §8

[8] = tested on: white mice; assay: climbing test (Campbell and Richter screening); format: in vivo; settings: mouse; Table 4; read-out: J. climbing test (ED50)
From the text: as §9, §7

[9] = tested on: white mice; assay: balance bar test (Campbell and Richter screening); format: in vivo; settings: mouse; Table 4; read-out: K. balance bar test (ED50)
From the text: as §9
K. balance bar test (ED50).
as §7

[10] = ip, intraperitoneal, Table 3, read-out: B - lethal dose (LD50) to mice, intraperitoneally
[11] = po, per os, Table 3, read-out: A - lethal dose (LD50) to mice, per os
[12] = po, per os, Table 5, read-out: A lethal dose (LD50) to mice, per os
[13] = mouse, intraperitoneal, narcosis for 3 minutes, Table 3
[14] = ip, intraperitoneal, Table 4, read-out: B. lethal dose (LD50) to mice, intraperitoneally
[15] = po, per os, Table 4, read-out: A. lethal dose (LD50) to mice, per os

## C=C1C2OC(OC)C3C1CC(O)C3(C)O2 (stereo not drawn) [Compound No. 981, 4β-hydroxy-8-methoxy-3-methyl-10-methylene-2,9-dioxatricyclo[4.3.1.0^3,7]decane]
[1]
  E - dose which prolongs narcosis produced by hexobarbital in a mouse by a factor of 4: 100 milligrams per kilogram of bod
[2]; mouse
  C - ataxia: dose required to produce ataxia in a mouse: 200 milligrams per kilogram of bod
[3]; [10]
  LD50: 600 mg/kg
[3]; [11]
  LD50: 610 mg/kg

## COC1OC2OC3(C)C(O)CC(C2C)C13 (stereo not drawn) [Compound No. 1246, 4β-hydroxy-3,10-dimethyl-8-methoxy-2,9-dioxatricyclo[4.3.1.0^3,7]decane]
[1]
  E - dose which prolongs narcosis produced by hexobarbital in a mouse by a factor of 4: 68 milligrams per kilogram of bod
[2]; mouse
  C - ataxia: dose required to produce ataxia in a mouse: 800 milligrams per kilogram of bod
[3]; [10]
  LD50: 1200 mg/kg
[3]; [11]
  LD50: > 1500 mg/kg

## COC1OC2OC3(C)C(O)CC(C2C)C13 (stereo not drawn) [Compound No. 1561, 4α-Hydroxy-8-methoxy-3,10-dimethyl-2,9-dioxatricyclo[4.3.1.0^3,7]decane]
[4]; Mus musculus
  ED50: 800 mg/kg
[1]
  E - dose which prolongs narcosis produced by hexobarbital in a mouse by a factor of 4: 68 milligrams per kilogram of bod
[5]
  F ptosis test: 100 milligrams per kilogram of bod
[2]; mouse
  C - ataxia: dose required to produce ataxia in a mouse: 200 milligrams per kilogram of bod
[6]
  minimal effective dose: 100 mg/kg
[7]
  B - lethal dose (LD50) to mice, intraperitoneally: 1600 milligrams per kilogram of bod
  A - lethal dose (LD50) to mice, per os: > 1500 milligrams per kilogram of bod
[3]; [12]
  LD50: > 1500 mg/kg

## COC1OC2OC3(C)C(OC(=O)NC(C)C)CC(C2C)C13 (centres unmarked) [Compound No. 2065]
[4]; [13]
  ED50: 46.4 mg/kg
[4]; mouse
  narcosis (in words): produces a very strong narcosis
[1]
  prolongation of narcosis produced by hexobarbital (in words): prolongation of narcosis produced by hexobarbital
  E - dose which prolongs narcosis produced by hexobarbital in a mouse by a factor of 4: 31.6 milligrams per kilogram of bod
[2]; 2065 versus 2057, ataxia
  ratio between effective and lethal doses (in words): remains constant
[2]; 2065 versus epimer 2057
  increase in effectiveness in producing ataxia: ten-fold increase in effectiveness
[2]; mouse
  dose required for producing ataxia: 12 milligrams per kilogram of body weight
  C - ataxia: dose required to produce ataxia in a mouse: 12 milligrams per kilogram of bod
[7]
  B - lethal dose (LD50) to mice, intraperitoneally: 118 milligrams per kilogram of bod
  A - lethal dose (LD50) to mice, per os: 156 milligrams per kilogram of bod

## C=C1C2OC(OC)C3C1CC(OC(=O)NCC)C3(C)O2 (centres unmarked) [Compound No. 2067]
[4]; mouse
  narcosis (in words): does not produce narcosis
[1]
  prolongation of narcosis produced by hexobarbital (in words): prolongs narcosis produced by hexobarbital
  E - dose which prolongs narcosis produced by hexobarbital in a mouse by a factor of 4: 215 milligrams per kilogram of bod
[2]
  minimal effective dose: 50 mg/kg
[2]; mouse, 2067 versus 2076
  doses effective in producing ataxia (in words): identical doses are effective in producing ataxia
[7]; 2067 versus 2076
  toxicity of the epimers (in words): substantially the same toxicity
[3]; [10]
  LD50: 390 mg/kg
[3]; [11]
  LD50: 872 mg/kg

## C=C1C2OC(OC)C3C1CC(O)C3(C)O2 (stereo not drawn) [Compound No. 2090, 4α-Hydroxy-8-methoxy-3-methyl-10-methylene-2,9-dioxatricyclo[4.3.1.0^3,7] decane]
[4]; Mus musculus
  ED50: < 300 mg/kg
[5]
  F ptosis test: 100 milligrams per kilogram of bod
[2]; mouse
  C - ataxia: dose required to produce ataxia in a mouse: 25 milligrams per kilogram of bod
[6]
  minimal effective dose: 200 mg/kg
[7]
  B - lethal dose (LD50) to mice, intraperitoneally: 300 milligrams per kilogram of bod
  A - lethal dose (LD50) to mice, per os: 774 milligrams per kilogram of bod

## C=C1C2OC(OC)C3C1CC(OC(C)=O)C3(C)O2 (stereo not drawn) [Compound No. 2117, 4α-Acetoxy-8-methoxy-3-methyl-10-methylene-2,9-dioxatricyclo [4.3.1.0^3,7] decane]
[5]
  F ptosis test: 100 milligrams per kilogram of bod
[6]
  dose required to produce a lowering of the rectal temperature, relative to the 4-hydroxy compound (in words): smaller
  minimal effective dose: 50 mg/kg
[3]; [12]
  LD50: 774 mg/kg

## C=C1C2OC(OC)C3C1CC(OC(=O)CC)C3(C)O2 (stereo not drawn) [Compound No. 2118, 4α-Propionyloxy-8-methoxy-3-methyl-10-methylene-2,9-dioxatricyclo[4.3.1.0^3,7]decane]
[5]
  F ptosis test: 100 milligrams per kilogram of bod
[6]
  dose required to produce a lowering of the rectal temperature, relative to the 4-hydroxy compound (in words): smaller
  minimal effective dose: 100 mg/kg
[3]; [12]
  LD50: 1140 mg/kg

## COC1OC2OC3(C)C(OC(=O)CC(C)C)CC(C2C)C13 (stereo not drawn) [Compound No. 2215, 4α-Isovaleryloxy-8-methoxy-3,10-dimethyl-2,9-dioxatricyclo[4.3.1.0^3,7]decane]
[5]; compared with Compound No. 1561
  dose producing ptosis relative to the 4-hydroxy compound (in words): one-fourth or one-half of the dose required of the 4-hydroxy-compound
[5]
  F ptosis test: 50 milligrams per kilogram of bod
[6]
  minimal effective dose: 200 mg/kg
[3]; [12]
  LD50: > 1470 mg/kg

## C=CCNC(=O)OC1CC2C(C)C3OC(OC)C2C1(C)O3 (stereo not drawn) [Compound No. 2274, 4α-(N-Allylcarbamyloxy)-8-methoxy-3,10-dimethyl-2,9-dioxatricyclo[4.3.1.0^3,7]decane]
[8]
  ED50: 75 mg/kg
[3]; [14]
  LD50: 279 mg/kg
[3]; [15]
  LD50: 339 mg/kg
[9]
  ED50: 62.5 mg/kg

## C=CCNC(=O)OC1CC2C(=C)C3OC(OC)C2C1(C)O3 (stereo not drawn) [Compound No. 2286, 4α-(N-Allylcarbamyloxy)-8-methoxy-3-methyl-10-methylene-2,9-dioxatricyclo[4.3.1.0^3,7]decane]
[8]
  ED50: 112 mg/kg
[3]; [14]
  LD50: 444 mg/kg
[3]; [15]
  LD50: 970 mg/kg
[9]
  ED50: 50 mg/kg

## C=C1C2OC(OC)C3C1CC(OC(=O)CC(C)C)C3(C)O2 (stereo not drawn) [Compound No. 2295, 4α-Isovaleryloxy-8-methoxy-3-methyl-10-methylene-2,9-dioxatricyclo[4.3.1.0^3,7]decane]
[6]
  dose required to produce a lowering of the rectal temperature, relative to the 4-hydroxy compound (in words): smaller
  minimal effective dose: 100 mg/kg
[3]; [12]
  LD50: > 1470 mg/kg

## COC1OC2OC3(C)C(OC(=O)NC4CCCCC4)CC(C2C)C13 (stereo not drawn) [Compound No. 2365, 4α-(N-Cyclohexylcarbamyloxy)-8-methoxy-3,10-dimethyl-2,9-dioxatricyclo[4.3.1.0^3,7]decane]
[8]
  ED50: 150 mg/kg
[3]; [14]
  LD50: 832 mg/kg
[3]; [15]
  LD50: 1470 mg/kg
[9]
  ED50: 137 mg/kg

## CCNC(=O)OC1CC2C(C)C3OC(OCC)C2C1(C)O3 (centres unmarked) [compound 2157]
[4]; [13]
  ED50: 100 mg/kg
[3]; [10]
  LD50: 527 mg/kg
[3]; [11]
  LD50: 1470 mg/kg

## C=C1C2OC(OCC)C3C1CC(OC(=O)NCC)C3(C)O2 (centres unmarked) [compound 2179]
[4]; [13]
  ED50: < 100 mg/kg
[2]
  minimal effective dose: < 100 mg/kg
[3]; [10]
  LD50: 802 mg/kg
[3]; [11]
  LD50: 944 mg/kg

## CCCCNC(=O)OC1CC2C(C)C3OC(OC)C2C1(C)O3 (centres unmarked) [compound 2327]
[8]
  ED50: 56 mg/kg
[3]; [14]
  LD50: 432 mg/kg
[3]; [15]
  LD50: 690 mg/kg
[9]
  ED50: 18 mg/kg

## COC1OC2OC3(C)C(OC(=O)NC(C)(C)C)CC(C2C)C13 (centres unmarked) [compound 2328]
[8]
  ED50: 175 mg/kg
[3]; [14]
  LD50: 1130 mg/kg
[3]; [15]
  LD50: 1470 mg/kg
[9]
  ED50: 56 mg/kg

## CCCNC(=O)OC1CC2C(C)C3OC(OC)C2C1(C)O3 (centres unmarked) [compound 2364]
[8]
  ED50: 44 mg/kg
[3]; [14]
  LD50: 244 mg/kg
[3]; [15]
  LD50: 327 mg/kg
[9]
  ED50: 38 mg/kg

## C=C1C2OC(OC)C3C1CC(OC(=O)NCCC)C3(C)O2 (centres unmarked) [compound 2388]
[8]
  ED50: 75 mg/kg
[3]; [14]
  LD50: 516 mg/kg
[3]; [15]
  LD50: 619 mg/kg
[9]
  ED50: 33 mg/kg

## CNC(=O)OC1CC2C(C)C3OC(OC)C2C1(C)O3 (centres unmarked) [compound 2500]
[8]
  ED50: 250 mg/kg
[3]; [14]
  LD50: 954 mg/kg
[3]; [15]
  LD50: 1140 mg/kg
[9]
  ED50: 621 mg/kg

## C=C1C2OC(OC)C3C1CC(OC(=O)NC)C3(C)O2 (centres unmarked) [compound 2504]
[3]; [14]
  LD50: 492 mg/kg
[3]; [15]
  LD50: 528 mg/kg
[9]
  ED50: 200 mg/kg

## C=CCNC(=O)OC1CC2C(=C)C3OC(OCC)C2C1(C)O3 (centres unmarked) [compound 2658]
[8]
  ED50: 185 mg/kg
[3]; [14]
  LD50: 331 mg/kg
[3]; [15]
  LD50: 470 mg/kg
[9]
  ED50: 62 mg/kg

Source: US4016176A, “Esters of 4-hydroxy-2,9-dioxatricyclo[4.3.1.0^3,7 ] decanes and processes for their production” (Kali-Chemie Pharma GmbH, priority 1973, dated 1977)
